Among the data in ChEMBL document CHEMBL1201862, “PubChem BioAssay data set” (2004) are EC50, IC50 and AC50 values, retold here.

Molecules are shown by their SMILES. Active and inactive are the calls of the source.

The nature of assay [1]: luciferase reporter signal suppression in cells – H4 neuroglioma cells, luminescence, dose response (AID 1990). In kind it is functional, cell-based. In general terms: Reporter assays use an easily measured gene product as a stand-in for the process of interest.
Assay [2] is described as follows: Luminescence Cell-Based Dose Response HTS to Identify Inhibitors of 5'UTR Stem-Loop Driven Prion Protein mRNA Translation in H4 Neuroglioblastoma Cells. [Related pubchem assays: 1827 (Project Summary), 1813 (Primary HTS)]. In kind it is functional.
The nature of assay [3]: alpha-synuclein stem-loop luciferase translation blockers – H4 neuroglioma cells, luminescence, confirmation (AID 1988). In kind it is functional, cell-based.
Assay [4] addresses T1, Rac GTPase-activating protein 1 (Homo sapiens, UniProt Q9H0H5).
T1 sequence (Q9H0H5 whole entry): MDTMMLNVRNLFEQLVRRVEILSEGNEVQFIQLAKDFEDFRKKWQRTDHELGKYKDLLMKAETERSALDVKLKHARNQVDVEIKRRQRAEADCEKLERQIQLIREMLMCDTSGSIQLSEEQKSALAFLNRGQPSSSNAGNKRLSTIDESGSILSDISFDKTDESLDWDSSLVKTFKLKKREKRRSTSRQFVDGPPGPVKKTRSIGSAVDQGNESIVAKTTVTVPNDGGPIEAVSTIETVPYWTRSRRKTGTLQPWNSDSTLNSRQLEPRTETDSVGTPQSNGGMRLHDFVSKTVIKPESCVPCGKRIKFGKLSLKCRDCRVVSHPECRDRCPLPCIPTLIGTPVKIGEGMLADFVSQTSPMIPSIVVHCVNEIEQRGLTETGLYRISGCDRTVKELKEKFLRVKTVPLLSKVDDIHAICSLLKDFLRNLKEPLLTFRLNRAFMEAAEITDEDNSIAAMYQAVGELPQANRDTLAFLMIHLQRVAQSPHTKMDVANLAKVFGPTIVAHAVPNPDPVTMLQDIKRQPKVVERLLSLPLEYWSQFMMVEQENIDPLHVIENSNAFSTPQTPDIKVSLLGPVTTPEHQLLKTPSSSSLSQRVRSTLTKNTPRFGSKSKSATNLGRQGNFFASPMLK
The assay is described as follows: blockers of MgcRacGAP-driven Rac1 GTP hydrolysis – biochemical, ADP Hunter fluorescence, primary and confirmatory, confirmation (AID 624330). In kind it is functional.

In assay [5] the target is Cytochrome P450 2D6 (Homo sapiens, UniProt P10635).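 Also: CYP2D6 member of a cytochrome P450 panel assay.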
Cytochrome P450 2D6, sequence (P10635 whole entry): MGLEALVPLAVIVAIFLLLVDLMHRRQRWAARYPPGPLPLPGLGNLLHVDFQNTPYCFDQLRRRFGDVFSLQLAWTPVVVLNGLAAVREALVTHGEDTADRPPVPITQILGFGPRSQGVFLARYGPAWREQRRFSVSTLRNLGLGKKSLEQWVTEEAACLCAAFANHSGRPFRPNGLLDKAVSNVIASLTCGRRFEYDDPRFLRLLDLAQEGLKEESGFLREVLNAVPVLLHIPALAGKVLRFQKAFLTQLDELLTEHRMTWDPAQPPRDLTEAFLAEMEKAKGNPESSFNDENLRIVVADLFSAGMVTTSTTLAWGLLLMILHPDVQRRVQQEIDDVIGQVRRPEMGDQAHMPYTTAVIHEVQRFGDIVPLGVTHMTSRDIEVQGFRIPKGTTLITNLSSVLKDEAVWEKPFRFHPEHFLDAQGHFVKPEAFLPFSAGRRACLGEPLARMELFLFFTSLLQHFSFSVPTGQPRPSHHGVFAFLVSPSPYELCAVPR
Assay [6] has as its target Cytochrome P450 2C9 (Homo sapiens, UniProt P11712).
Assay [7] is described as follows: Luminescence Cell-Based Dose Response HTS to Identify Activators of Luciferase Translation or Activity in H4 […] Cells. [Related pubchem assays: 1829 (Project Summary), 1814 (Primary HTS)]. In kind it is functional.
Assay [8] is described as follows: Trypanosoma cruzi growth suppression in host cells – NIH3T3 host cells, beta-gal luminescence, confirmation (AID 2044).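 Also: intracellular parasites grown in NIH/3T3 mouse fibroblasts as host cells; luminescent beta-galactosidase reporter signal from transgenic T. cruzi replicating inside host cells; inhibitors lower the luminescence signal.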 In kind it is functional, cell-based.
Assay [9] can be described thus: NIH3T3 cell viability loss – ATP luminescence, mouse fibroblasts, counter-screen, dose response (AID 2010).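 Also: cells exposed to compound for about 90 hours before reading.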 In kind it is functional, cell-based. A general note: Counterscreens check selectivity or assay interference.
Assay [10] addresses Cytochrome P450 2C19 (Homo sapiens, UniProt P33261). The assay is described as follows: Cytochrome panel assay with activity outcomes. Panel member name: p450-cyp2c19 Compounds with AC50 equal or less than 10 uM are considered active. In kind it is functional. Conditions: read-out: AC50.
Assay [11] addresses T2, Cytochrome P450 1A2 (Homo sapiens, UniProt P05177).
T2 sequence (P05177 whole entry): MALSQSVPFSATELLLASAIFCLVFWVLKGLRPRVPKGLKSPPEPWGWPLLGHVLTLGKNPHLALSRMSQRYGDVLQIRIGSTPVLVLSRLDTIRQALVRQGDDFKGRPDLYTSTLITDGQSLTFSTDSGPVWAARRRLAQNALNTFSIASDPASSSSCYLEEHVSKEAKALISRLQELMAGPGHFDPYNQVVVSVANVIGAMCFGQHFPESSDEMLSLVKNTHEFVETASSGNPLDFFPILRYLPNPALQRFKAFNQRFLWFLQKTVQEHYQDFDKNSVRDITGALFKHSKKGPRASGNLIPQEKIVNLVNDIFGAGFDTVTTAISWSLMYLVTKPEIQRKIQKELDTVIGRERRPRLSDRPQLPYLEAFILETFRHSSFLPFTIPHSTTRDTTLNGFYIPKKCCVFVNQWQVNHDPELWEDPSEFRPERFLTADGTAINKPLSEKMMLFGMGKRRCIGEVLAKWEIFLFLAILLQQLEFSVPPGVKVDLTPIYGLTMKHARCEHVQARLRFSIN

For assay [12], the system named is H4. The assay is described as follows: Luminescence Cell-Based Dose Response HTS to Identify Activators of 5'UTR Stem-Loop Driven Prion Protein mRNA Translation in H4 Neuroglioblastoma Cells. [Related pubchem assays: 1829 (Project Summary), 1814 (Primary HTS)]. As to conditions: Homo sapiens. In kind it is functional.

Cytochrome P450 2C9, sequence (P11712 whole entry): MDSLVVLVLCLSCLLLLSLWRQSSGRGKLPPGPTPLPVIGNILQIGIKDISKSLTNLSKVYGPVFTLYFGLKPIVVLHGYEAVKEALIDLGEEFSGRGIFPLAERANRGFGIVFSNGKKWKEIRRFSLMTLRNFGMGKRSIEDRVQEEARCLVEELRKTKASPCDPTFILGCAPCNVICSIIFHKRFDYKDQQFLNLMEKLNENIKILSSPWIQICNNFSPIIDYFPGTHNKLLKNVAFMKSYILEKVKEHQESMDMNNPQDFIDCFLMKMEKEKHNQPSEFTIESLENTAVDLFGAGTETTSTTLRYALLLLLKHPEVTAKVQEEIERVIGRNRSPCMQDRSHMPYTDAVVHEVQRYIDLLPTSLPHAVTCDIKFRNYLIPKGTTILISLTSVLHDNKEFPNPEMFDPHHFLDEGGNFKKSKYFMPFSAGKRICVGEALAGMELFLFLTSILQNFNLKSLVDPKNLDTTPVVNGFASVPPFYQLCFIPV
Cytochrome P450 2C19, sequence (P33261 whole entry): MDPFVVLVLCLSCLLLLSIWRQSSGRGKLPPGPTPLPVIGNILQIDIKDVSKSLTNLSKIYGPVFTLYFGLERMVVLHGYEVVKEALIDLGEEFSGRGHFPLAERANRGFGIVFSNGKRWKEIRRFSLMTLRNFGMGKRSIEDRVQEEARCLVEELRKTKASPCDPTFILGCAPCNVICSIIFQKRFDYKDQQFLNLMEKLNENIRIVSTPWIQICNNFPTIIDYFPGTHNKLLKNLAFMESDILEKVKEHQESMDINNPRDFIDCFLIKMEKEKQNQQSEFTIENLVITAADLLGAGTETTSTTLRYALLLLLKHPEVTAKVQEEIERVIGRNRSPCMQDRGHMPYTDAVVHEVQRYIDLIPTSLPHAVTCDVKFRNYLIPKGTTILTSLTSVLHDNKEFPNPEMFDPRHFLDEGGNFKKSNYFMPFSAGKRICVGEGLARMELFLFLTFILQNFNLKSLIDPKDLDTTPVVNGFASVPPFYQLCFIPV

What is called EC50 is the concentration giving half of the maximal effect. For `CCCn1c(N2CCN(CC(=O)c3c(C)n(C)c4ccc(OC)cc34)CC2)nc2c1c(=O)[nH]c(=O)n2C`, the concentration giving a half-maximal response (EC50) in assay [1] is 18.9 µM (active); in [2], 13.5 µM (active); in assay [3], > 120 µM (not active). The term IC50 denotes the concentration needed to halve the response being measured. Consider `Cc1ccc(NCc2ccccc2O)cc1C`, for which the 50% inhibitory concentration (IC50) in assay [4] is 118 µM (active).

As for `Cn1c(=O)[nH]c(=O)c2c1nc(Sc1ncccn1)n2CCCc1ccccc1`, the EC50 in [1] is 12.3 µM (active); in assay [2], 18.4 µM (active); in [3], 83.1 µM (active). For `Cc1sc2nc(CN3CCOCC3)nc(N3CCOCC3)c2c1C`, the IC50 in assay [4] is 191 µM (active). As for `CCCCc1nc2[nH]nc(N)c2c2c1CCCC2`, the concentration for a half-maximal effect (EC50) was 12.5 µM (active) in assay [1], > 120 µM (not active) in assay [2] and 12 µM (active) in [3].

Regarding `O=C(Nc1ccc(Br)cc1)c1ccc(F)c(S(=O)(=O)N2CCN(c3ccccn3)CC2)c1`, the concentration giving a half-maximal response (EC50) in [1] is > 120 µM (not active); in [2] it was 11.5 µM (active); in [3], > 120 µM (not active). As to `Cc1[nH]c2ccc(-c3nnc(S)n3Cc3ccccc3)cc2c1C`, the EC50 in assay [1], in [2] and in assay [3] was > 120 µM (not active) throughout. On to `CCN(CC)CCn1cnc2c3c(OC)cccc3nc-2c1O`, for which the EC50 in assay [1], in assay [2] and in assay [3] was > 120 µM (not active) throughout. Broadly, the AC50 is the midpoint of the concentration-response curve, whichever way the signal moves. Take `NC(=O)c1ccccc1-c1nc(-n2ccnc2)c2ccccc2n1`: the AC50 in assay [5] was 39.8 µM (inconclusive). With `COc1cc(/C=C/CN2CCN(Cc3ccc(C)o3)C(CCO)C2)ccc1O` (configuration not stated), in assay [4], the IC50 was 363 µM (active). In the case of `COc1ccc(OC)c2c(C)c(C)[nH]c12`, the IC50 in [4] was 29.5 µM (active).

With `COc1ccc(NC(=O)CN(C)C(=O)c2cccc(S(=O)(=O)N3CCCc4ccccc43)c2)cc1`, the EC50 in assay [1] was > 120 µM (not active); in assay [2], > 120 µM (not active); in assay [3], 72.5 µM (active).

For `CCOc1ccc(NC(=O)NCCN2CCN(c3cccc(C)c3C)CC2)cc1`, the EC50 in assay [1], in assay [2] and in assay [3] was > 120 µM (not active) in each case. For the compound `CCOc1ccc(S(=O)(=O)N2CCC(C(=O)NCc3ccco3)CC2)cc1C`, the EC50 in assay [1] is 17.5 µM (active); in [2], > 120 µM (not active); in assay [3], 37.6 µM (active). `Cc1cccc(CN2CCN(C(C)C(=O)NC(C)c3ccccc3)CC2)c1` (configuration not stated): the IC50 in assay [4] was 84.2 µM (active). Consider `Cc1c(Cl)cccc1N=C(S)N1CCN(S(=O)(=O)c2cccs2)CC1`, for which the EC50 in assay [1] is > 120 µM (not active); in [2], 13.1 µM (active); in assay [3], > 120 µM (not active). For the compound `CC(C)C[C@H](NC(=O)c1nc[nH]c1C(=O)N[C@@H](CC(C)C)C(=O)OC(C)(C)C)C(=O)OC(C)(C)C`, the EC50 in assay [1] was 16.8 µM (active); in assay [2], 13.6 µM (active); in assay [3], 8.87 µM (active). In the case of `COc1cccc(C(=O)/C=C/c2ccc(SC)cc2)c1`, the AC50 in assay [6] was 10 µM (inconclusive); in [5], 14.1 µM (inconclusive). Consider `C[C@H]1CN(S(=O)(=O)c2cccc3cnccc23)CCN1`, for which, in assay [5], the AC50 is 39.8 µM (inconclusive). With `COc1ccc(N2Cc3ccc(OC)c(OC)c3C2=O)cc1`, the half-maximal effective concentration (EC50) in assay [7] was 0.379 µM (active).

Turning to `C=CCc1cc(Cl)ccc1OCCN(C)C`, the EC50 in [8] was 559 nM (active); in [9] it was > 30 µM (not active). The IC50 in [4] was 157 µM (active). For the compound `CCn1cc(-c2nnnn2-c2ccc(Cl)cc2)c(=O)c2ccccc21`, in assay [5], the AC50 was 11.2 µM (inconclusive). Regarding `CCN(CC)c1ccc(/C=C2/C(=O)NC(=O)N(Cc3ccco3)C2=O)cc1`, in assay [4], the IC50 is 126 µM (active).

With `COCC(C)NCc1cccc([N+](=O)[O-])c1` (configuration not stated), the figures for the AC50 in [6], in assay [5] and in [10] were 0.398 µM (inconclusive), 14.1 µM (inconclusive) and 11.2 µM (inconclusive), respectively. Turning to `O=C(CN1CCN(c2ccc(O)cc2)CC1)Nc1ccccc1C(=O)NCCc1ccccc1`, in assay [4], the IC50 is 41.5 µM (active). The same measure, in the same setting: next, `COc1ccc(N[C@@H]2CCN3C(=O)c4ccccc4[C@@H]3C[C@H]2O)cc1`: 74.8 µM (active). Consider `O=C(Cn1c(C(F)(F)F)nc2ccccc21)c1ccccc1`, for which the concentration at half-maximal activity (AC50) in [5] is 15.8 µM (inconclusive); in assay [11], 25.1 µM (inconclusive).

As for `O=C(NC(=S)N1CCN(c2ccc(O)cc2)CC1)c1ccco1`, in [4], the IC50 is 33.1 µM (active). Still for that read-out and setting: next, `Cc1nc(C/C(=N\N)c2ccc(O)cc2O)cs1`: 64 µM (active). Take `COc1cc(-c2nc3ccccn3c2/N=C/c2ccccc2)ccc1O`: the AC50 in assay [5] was 28.2 µM (inconclusive).

Regarding `Cc1ccc(O)c(/N=C/c2sc3ccccc3c2Cl)c1`, the IC50 in [4] was 39.2 µM (active).

`COc1cc(OC)cc(C(=O)Oc2ccc(/C=N/Nc3nc4ccccc4s3)cc2OC)c1`: the values for the concentration giving a half-maximal response (EC50) in [12] and in [7] were 7.55 µM (active) and 5.84 µM (active), respectively. As to `O=C1c2ccccc2NC(c2ccc(O)cc2)N1/N=C/c1ccc(O)cc1` (configuration not stated), the IC50 in assay [4] was 66.4 µM (active).
